Reference: publication PMC12216189 (Nature Communications, 2025)
Ends that are not written are not given here.

Key:
[1] = tested on: A. baumannii 19606; assay: Biofilm formation assay; type: cell-based, Acinetobacter baumannii; settings: for Biofilm-enhancing activity of HNP1 mutants (CV staining): HNP1 Ala-scan mutants and analogs, Fig. 6F
[2] = tested on: A. baumannii 19606; assay: Real colony count bactericidal assay in LB broth; type: cell-based, Acinetobacter baumannii; settings: 4 μM
[3] = tested on: S. aureus, P. aeruginosa, and A. baumannii; settings: various bacteria, including S. aureus, ref [24]–[26]; cited from earlier work
[4] = tested on: Staphylococcus; settings: ref [26]; cited from earlier work
[5] = tested on: drug-resistant bacteria; settings: ref [84]; cited from earlier work
[6] = tested on: Shigella; settings: sub-lethal concentrations; ref [78]; cited from earlier work
[7] = molecular target: Fam-A11K-HNP1 (fluorescently labeled synthetic human neutrophil peptide 1) (human); assay: fluorescence polarisation
[8] = tested on: A. baumannii 19606; assay: Bactericidal assay of kanamycin with/without HNP1, no preincubation; type: cell-based, Acinetobacter baumannii; settings: 0–100 μg/ml, LB broth, 24 h
[9] = tested on: A. baumannii 19606; assay: Competitive inhibition by recombinant OmpA of HNP1-promoted biofilm formation; type: cell-based, Acinetobacter baumannii; settings: 0–2 μM OmpA

Q: What does the source list for “VCSCRLVFCRRTELRVGNCLIGGVSFTYCCTRV (disulfide (positions not given here)) [HNP4]”?
A: Effect on biofilm formation (CV staining) ([1]; 0–32 μM, LB broth, 96-well plate, 24 h, 37 °C): largely inactive; Effect on biofilm formation (CV staining) ([1]; 4 μM, A. baumannii 19606): inactive in promoting biofilm formation

Q: With T18A: HNP1 Ala-substitution mutant as the molecule, how does the “Biofilm-enhancing activity of HNP1 mutants (CV staining)” value (“Biofilm-enhancing activity” for short) [1] read?
A: significant decrease in biofilm enhancement

Q: With R15A: HNP1 Ala-substitution mutant as the molecule, how does the “Biofilm-enhancing activity” value [1] read?
A: significant decrease in biofilm enhancement

Q: For “LL37: human cathelicidin (LLGDFFRKSKEKIGKEFKRIVQRIKDFLRNLVPRTES; Antibacterial peptide LL-37; UniProt P49913 134-170, looked up)”, which “Bacterial killing in LB broth” value [2] is on record?
A: killing of the bacteria even in the presence of LB broth

Q: What about the “Effect on biofilm formation (CV staining)” value (“Effect … (CV staining)” for short) ([1]; 4 μM, A. baumannii 19606) of the same molecule?
A: significantly inhibited biofilm formation

Q: What about the “Effect on biofilm formation” value [3] of the same molecule?
A: inhibit biofilm formation by various bacteria

Q: Which “Biofilm-enhancing activity” value [1] does the source give for I6A: HNP1 Ala-substitution mutant here?
A: significant decrease in biofilm enhancement

Q: For “HBD3: human β-defensin 3, cited only (GIINTLQKYYCRVRGGRCAVLSCLPKEEQIGKCSTRGRKCCRRKK; ends and bridges not checked; cysteine pairing not given here; UniProt P81534 23-67, looked up)”, which “Effect on biofilm formation” value [4] is on record?
A: inhibitory against biofilm formation

Q: With colistin as the molecule, how does the “Potentiation of antibacterial activity of classic antibiotics” value [5] read?
A: potentiate the antibacterial activity of classic antibiotics

Q: For “ATCYCRTGRCATRESLSGVCEISGRLYRLCCR (disulfide (positions not given here)) [HD5]”, which “Shigella infection of epithelial cells and tissues” value [6] is on record?
A: promotes, at sub-lethal concentrations, Shigella infection

Q: And the “Effect … (CV staining)” value ([1]; 4 μM, A. baumannii 19606)?
A: slightly enhanced it

Q: Which “Effect … (CV staining)” value ([1]; 4 μM, A. baumannii 19606) does the source give for “AFTCHCRR-SCYSTEYSYGTCTVMGINHRFCCL (disulfide) [HD6]” here?
A: slightly enhanced it

Q: For I20A/L25A: HNP1 Ala-substitution mutant, which “Biofilm-enhancing activity” value [1] is on record?
A: significant decrease in biofilm enhancement

Q: Which “Biofilm-enhancing activity” value [1] does the source give for “W26A-HNP1: dimerization-debilitating analog” here?
A: completely lost their biofilm-enhancing activity

Q: With “OmpA-ΔL1L2 (full-length OmpA with extracellular loops L1 and L2 deleted) (natural protein)” as the molecule, how does the fold decrease of binding against full-length OmpA [7] read?
A: 3 fold

Q: Which “Kanamycin effect on bacterial growth and survival” value [8] does the source give for `NC[C@H]1O[C@H](O[C@H]2[C@H](O)[C@@H](O[C@H]3O[C@H](CO)[C@@H](O)[C@H](N)[C@H]3O)[C@H](N)C[C@@H]2N)[C@H](O)[C@@H](O)[C@@H]1O` [Kanamycin] here?
A: dose-dependently inhibited bacterial growth and survival

Q: With “HBD1: human β-defensin (DHYNCVSSGGQCLYSACPIFTKIQGTCYRGKAKCCK; ends and bridges not checked; cysteine pairing not given here; UniProt P60022 33-68, looked up)” as the molecule, how does the “Effect … (CV staining)” value ([1]; 4 μM, A. baumannii 19606) read?
A: inactive in promoting biofilm formation

Q: Which fold decrease of binding against the transmembrane domain of OmpA [7] does the source give for “TM-ΔL1L2 (transmembrane domain of OmpA with extracellular loops L1 and L2 deleted) (domain or fragment)” here?
A: 3 fold

B1: full-length recombinant OmpA (outer membrane protein A) of Acinetobacter baumannii ATCC 19606 (natural protein)
chain: GVTVTPLLLGYTFQDSQHNNGGKDGNLTNGPELQDDLFVGAALGIELTPWLGFEAEYNQVKGDVDGASAGAEYKQKQINGNFYVTSDLITKNYDSKIKPYVLLGAGHYKYDFDGVNRGTRGTSEEGTLGNAGVGAFWRLNDALSLRTEARATYNADEEFWNYTALAGLNVVLGGHLKPAAPVVEVAPVEPTPVAPQPQELTEDLNMELRVFFDTNKSNIKDQYKPEIAKVAEKLSEYPNATARIEGHTDNTGPRKLNERLSLARANSVKSALVNEYNVDASRLSTQGFAWDQPIADNKTKEGRAMNRRVFATITGSRTVVVQPGQEAAAPAAAQ
Q: For B1, which Kd [7] is on record?
A: 500 nM

B2: OmpA: recombinant A. baumannii outer membrane protein A with His tag (protein)
chain: B1 chain
modifications: left off: His tag, end not stated, state not stated
Q: For B2, which “Effect of recombinant OmpA on HNP1-promoted biofilm formation” value ([9]; 8 μM HNP1) is on record?
A: dose-dependently inhibited biofilm formation promoted by HNP1

Q: What about the “Effect of recombinant OmpA on biofilm formation without HNP1” value ([9]; no HNP1) of the same molecule?
A: little effect on biofilm formation
